Measurements taken from paper PMC10620772, “Design, synthesis, and biological evaluation of new pyrimidine-5-carbonitrile derivatives as novel anti-cancer, dual EGFR^WT/COX-2 inhibitors with docking studies” (RSC Advances, 2023).

How the values were obtained:
CCRF-CEM = assay: NCI60 antitumor screening; assay type: cell-based, human; conditions: 10 μM one-dose
HL-60(TB) = assay: NCI60 antitumor screening; assay type: cell-based, human; conditions: 10 μM one-dose
K-562 = assay: NCI60 antitumor screening; assay type: cell-based, human; conditions: 10 μM one-dose
MOLT-4 = assay: NCI60 antitumor screening; assay type: cell-based, human; conditions: 10 μM one-dose
RPMI-8226 = assay: NCI60 antitumor screening; assay type: cell-based, human; conditions: 10 μM one-dose
SR = assay: NCI60 antitumor screening; assay type: cell-based, human; conditions: 10 μM one-dose, Table 1
A549/ATCC = assay: NCI60 antitumor screening; assay type: cell-based, human; conditions: 10 μM one-dose
EKVX = assay: NCI60 antitumor screening; assay type: cell-based, human; conditions: 10 μM one-dose
HOP-62 = assay: NCI60 antitumor screening; assay type: cell-based, human; conditions: 10 μM one-dose
HOP-92 = assay: NCI60 antitumor screening; assay type: cell-based, human; conditions: 10 μM one-dose
NCI-H226 = assay: NCI60 antitumor screening; assay type: cell-based, human; conditions: 10 μM one-dose
NCI-H23 = assay: NCI60 antitumor screening; assay type: cell-based, human; conditions: 10 μM one-dose
NCI-H322M = assay: NCI60 antitumor screening; assay type: cell-based, human; conditions: 10 μM one-dose
NCI-H460 = assay: NCI60 antitumor screening; assay type: cell-based, human; conditions: 10 μM one-dose
NCI-H522 = assay: NCI60 antitumor screening; assay type: cell-based, human; conditions: 10 μM one-dose
COLO 205 = assay: NCI60 antitumor screening; assay type: cell-based, human; conditions: 10 μM one-dose
HCC-2998 = assay: NCI60 antitumor screening; assay type: cell-based, human; conditions: 10 μM one-dose
HCT-116 = assay: NCI60 antitumor screening; assay type: cell-based, human; conditions: 10 μM one-dose
HCT-15 = assay: NCI60 antitumor screening; assay type: cell-based, human; conditions: 10 μM one-dose
HT29 = assay: NCI60 antitumor screening; assay type: cell-based, human; conditions: 10 μM one-dose
KM12 = assay: NCI60 antitumor screening; assay type: cell-based, human; conditions: 10 μM one-dose
SW-620 = assay: NCI60 antitumor screening; assay type: cell-based, human; conditions: 10 μM one-dose
SF-268 = assay: NCI60 antitumor screening; assay type: cell-based, human; conditions: 10 μM one-dose
SF-295 = assay: NCI60 antitumor screening; assay type: cell-based, human; conditions: 10 μM one-dose
SF-539 = assay: NCI60 antitumor screening; assay type: cell-based, human; conditions: 10 μM one-dose
SNB-19 = assay: NCI60 antitumor screening; assay type: cell-based, human; conditions: 10 μM one-dose
SNB-75 = assay: NCI60 antitumor screening; assay type: cell-based, human; conditions: 10 μM one-dose, Table 1
U251 = assay: NCI60 antitumor screening; assay type: cell-based, human; conditions: 10 μM one-dose
LOX IMVI = assay: NCI60 antitumor screening; assay type: cell-based, human; conditions: 10 μM one-dose
MALME-3M = assay: NCI60 antitumor screening; assay type: cell-based, human; conditions: 10 μM one-dose
M14 = assay: NCI60 antitumor screening; assay type: cell-based, human; conditions: 10 μM one-dose
MDA-MB-435 = assay: NCI60 antitumor screening; assay type: cell-based, human; conditions: 10 μM one-dose
SK-MEL-2 = assay: NCI60 antitumor screening; assay type: cell-based, human; conditions: 10 μM one-dose
SK-MEL-28 = assay: NCI60 antitumor screening; assay type: cell-based, human; conditions: 10 μM one-dose
SK-MEL-5 = assay: NCI60 antitumor screening; assay type: cell-based, human; conditions: 10 μM one-dose
UACC-257 = assay: NCI60 antitumor screening; assay type: cell-based, human; conditions: 10 μM one-dose
UACC-62 = assay: NCI60 antitumor screening; assay type: cell-based, human; conditions: 10 μM one-dose
IGROV1 = assay: NCI60 antitumor screening; assay type: cell-based, human; conditions: 10 μM one-dose
OVCAR-3 = assay: NCI60 antitumor screening; assay type: cell-based, human; conditions: 10 μM one-dose
OVCAR-4 = assay: NCI60 antitumor screening; assay type: cell-based, human; conditions: 10 μM one-dose
OVCAR-5 = assay: NCI60 antitumor screening; assay type: cell-based, human; conditions: 10 μM one-dose
OVCAR-8 = assay: NCI60 antitumor screening; assay type: cell-based, human; conditions: 10 μM one-dose
NCI/ADR-RES = assay: NCI60 antitumor screening; assay type: cell-based, human; conditions: 10 μM one-dose
SK-OV-3 = assay: NCI60 antitumor screening; assay type: cell-based, human; conditions: 10 μM one-dose
786–0 = assay: NCI60 antitumor screening; assay type: cell-based, human; conditions: 10 μM one-dose
A498 = assay: NCI60 antitumor screening; assay type: cell-based, human; conditions: 10 μM one-dose
ACHN = assay: NCI60 antitumor screening; assay type: cell-based, human; conditions: 10 μM one-dose
CAKI-1 = assay: NCI60 antitumor screening; assay type: cell-based, human; conditions: 10 μM one-dose
RXF 393 = assay: NCI60 antitumor screening; assay type: cell-based, human; conditions: 10 μM one-dose
SN12C = assay: NCI60 antitumor screening; assay type: cell-based, human; conditions: 10 μM one-dose
TK-10 = assay: NCI60 antitumor screening; assay type: cell-based, human; conditions: 10 μM one-dose
UO-31 = assay: NCI60 antitumor screening; assay type: cell-based, human; conditions: 10 μM one-dose
PC-3 = assay: NCI60 antitumor screening; assay type: cell-based, human; conditions: 10 μM one-dose
DU-145 = assay: NCI60 antitumor screening; assay type: cell-based, human; conditions: 10 μM one-dose
MCF7 = assay: NCI60 antitumor screening; assay type: cell-based, human; conditions: 10 μM one-dose
MDA-MB-231/ATCC = assay: NCI60 antitumor screening; assay type: cell-based, human; conditions: 10 μM one-dose
HS 578T = assay: NCI60 antitumor screening; assay type: cell-based, human; conditions: 10 μM one-dose, Table 1
BT-549 = assay: NCI60 antitumor screening; assay type: cell-based, human; conditions: 10 μM one-dose
T-47D = assay: NCI60 antitumor screening; assay type: cell-based, human; conditions: 10 μM one-dose
MDA-MB-468 = assay: NCI60 antitumor screening; assay type: cell-based, human; conditions: 10 μM one-dose
NCI60 cell lines panel = assay: NCI60 antitumor screening, full panel; assay type: cell-based, human; conditions: 10 μM one-dose, mean over NCI60
Procedure, shortened: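 Single-concentration screen at 10 μM across the NCI60 panel (leukaemia, NSCLC, colon, CNS, melanoma, ovarian, renal, prostate, breast). Results are expressed as percent growth inhibition (GI%) of treated lines.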

HepG2 = tested on: HepG2; set-up: method as in PMID 32115728, PMID 32959865; conditions: antiproliferation; cited from earlier work

N#Cc1c(-c2ccc(F)cc2)nc(SCc2ccc(F)cc2)nc1N1CCOCC1 [4b, 2-((4-Fluorobenzyl)thio)-4-(4-fluorophenyl)-6-morpholinopyrimidine-5-carbonitrile]
GI% (CCRF-CEM): 12.89%
GI% (HL-60(TB)): 15.01%
GI% (K-562): 16.20%
GI% (K-562; Table 1): — (GI value > 70%)
GI% (MOLT-4): — (GI% < 10)
GI% (RPMI-8226): — (GI% < 10)
GI% (SR): — (GI value > 70%)
GI% (A549/ATCC): 31.03%
GI% (EKVX): 39.92%
GI% (HOP-62; Table 1): 75.65%
GI% (HOP-92): 65.67%
GI% (NCI-H226): 51.64%
GI% (NCI-H226; Table 1): — (GI value > 70%)
GI% (NCI-H23): 28.19%
GI% (NCI-H322M): 21.55%
GI% (NCI-H460): 26.13%
GI% (NCI-H522): 45.02%
GI% (COLO 205): — (GI% < 10)
GI% (HCC-2998): 12.64%
GI% (HCT-116): 33.96%
GI% (HCT-15): 20.05%
GI% (HT29): — (GI% < 10)
GI% (KM12): 12.78%
GI% (SW-620): 14.48%
GI% (SF-268): 56.58%
GI% (SF-295): 63.10%
GI% (SF-539): 50.95%
GI% (SF-539; Table 1): — (GI value > 70%)
GI% (SNB-19): 56.32%
GI% (SNB-75): 82.51%
GI% (U251): 52.85%
GI% (LOX IMVI): 23.57%
GI% (MALME-3M): 41.38%
GI% (M14): — (GI% < 10)
GI% (MDA-MB-435): — (GI% < 10)
GI% (SK-MEL-2): 21.29%
GI% (SK-MEL-28): 14.16%
GI% (SK-MEL-5): 25.68%
GI% (UACC-257): 22.89%
GI% (UACC-62): 30.66%
GI% (IGROV1): — (GI% < 10)
GI% (OVCAR-3): 24.80%
GI% (OVCAR-4): 39.53%
GI% (OVCAR-4; Table 1): — (GI value > 70%)
GI% (OVCAR-5): 16.89%
GI% (OVCAR-8): 45.16%
GI% (NCI/ADR-RES): 36.47%
GI% (SK-OV-3): 60.37%
GI% (786–0; Table 1): 75.34%
GI% (A498): 28.08%
GI% (ACHN): 53.35%
GI% (CAKI-1): 69.32%
GI% (RXF 393): 58.43%
GI% (RXF 393; Table 1): — (GI value > 70%)
GI% (SN12C): 27.12%
GI% (TK-10): 22.42%
GI% (UO-31): 13.97%
GI% (PC-3): 28.37%
GI% (DU-145): 22.16%
GI% (MCF7): 36.26%
GI% (MDA-MB-231/ATCC): 49.52%
GI% (HS 578T): 74.34%
GI% (BT-549): 35.72%
GI% (T-47D): 26.75%
GI% (MDA-MB-468): 37.89%
Mean GI% (NCI60 cell lines panel): 34.42%

N#Cc1c(-c2ccc(F)cc2)nc(SCc2ccc([N+](=O)[O-])cc2)nc1N1CCOCC1 [4c, 4-(4-Fluorophenyl)-6-morpholino-2-((4-nitrobenzyl)thio) pyrimidine-5-carbonitrile]
GI% (CCRF-CEM): 22.80%
GI% (HL-60(TB)): 17.28%
GI% (K-562): 23.12%
GI% (K-562; Table 1): — (GI value > 70%)
GI% (MOLT-4): 26.34%
GI% (RPMI-8226): 19.73%
GI% (SR): — (GI value > 70%)
GI% (A549/ATCC): 36.61%
GI% (EKVX): 60.74%
GI% (HOP-62): 65.34%
GI% (HOP-62; Table 1): — (GI value > 70%)
GI% (HOP-92): 63.28%
GI% (NCI-H226; Table 1): 76.22%
GI% (NCI-H23): 25.17%
GI% (NCI-H322M): 17.30%
GI% (NCI-H460): 22.56%
GI% (NCI-H522): 58.72%
GI% (COLO 205): — (GI% < 10)
GI% (HCC-2998): — (GI% < 10)
GI% (HCT-116): 35.64%
GI% (HCT-15): 27.19%
GI% (HT29): 13.41%
GI% (KM12): 15.07%
GI% (SW-620): 19.46%
GI% (SF-268): 50.66%
GI% (SF-295): 58.52%
GI% (SF-539; Table 1): 73.77%
GI% (SNB-19): 53.96%
GI% (SNB-75): 92.38%
GI% (U251): 44.68%
GI% (LOX IMVI): 15.29%
GI% (MALME-3M): 57.24%
GI% (M14): 12.25%
GI% (MDA-MB-435): 16.03%
GI% (SK-MEL-2): 12.63%
GI% (SK-MEL-28): 17.90%
GI% (SK-MEL-5): 38.14%
GI% (UACC-257): 45.85%
GI% (UACC-62): 37.29%
GI% (IGROV1): 19.45%
GI% (OVCAR-3): 30.28%
GI% (OVCAR-4): 42.76%
GI% (OVCAR-4; Table 1): — (GI value > 70%)
GI% (OVCAR-5): — (GI% < 10)
GI% (OVCAR-8): 46.89%
GI% (NCI/ADR-RES): 58.37%
GI% (SK-OV-3): 55.46%
GI% (786–0): 69.78%
GI% (786–0; Table 1): — (GI value > 70%)
GI% (A498): 35.57%
GI% (ACHN): 48.98%
GI% (CAKI-1): 64.15%
GI% (RXF 393; Table 1): 90.21%
GI% (SN12C): 25.44%
GI% (TK-10): 15.83%
GI% (UO-31): 49.11%
GI% (PC-3): 40.85%
GI% (DU-145): 26.65%
GI% (MCF7): 41.49%
GI% (MDA-MB-231/ATCC): 52.93%
GI% (HS 578T): 84.42%
GI% (BT-549): 41.46%
GI% (T-47D): 44.55%
GI% (MDA-MB-468): 49.44%
Mean GI% (NCI60 cell lines panel): 39.54%

C=CCSc1nc(Nc2ccccc2)c(C#N)c(-c2ccccc2)n1 [E]
IC50 (HepG2): 3.56 µM
